Test results reported in patent publication US20120022163A1 (priority 2010, published 2012).
“Also recorded” adds a separate entry of the source. Where two headings read alike, the source gives them in different places.

What was measured:
[1] = test system: RML (Rocky Mountains Laboratories) strain of the mouse scrapie agent; assay type: in vivo, CD1 female mice; settings: Log-Rank test
[2] = test system: PrP^sc; assay type: in vivo, CD1 female mice; settings: mice sacrificed at clinical end stage; brain
[3] = test system: PrP^sc; assay type: in vivo, CD1 female mice; settings: ip infected mice; cerebellum, hippocampus and parietal cortex
[4] = mouse, in vivo, po
[5] = test system: gamma secretase; settings: cited from earlier work

O=C(O)C1(c2ccc(-c3ccc(Cl)c(Cl)c3)c(F)c2)CC1 [CHF 5074]
survival time, treated versus untreated ([1]; ic infected mice): no difference; also recorded: no effect | survival time, treated versus untreated ([1]; ip infected mice): significantly increases the survival; also recorded: significant difference; also recorded: significantly prolongs survival times | content of PrP^sc among the different groups (Western blot) [2]: without significant differences | PrP^sc deposits in brain areas (immunohistochemistry), treated compared to controls [3]: significant lower PrP^sc deposits | safety and tolerability of chronic administration [4]: safe and well tolerate | mode of action on gamma secretase [5]: gamma secretase modulator
